One compound from the Kinase Knowledgebase extract (Sharma et al. 2016) can be followed below.

In this assay the target is EGFR (Wistar rat) (UniProt P00533). As to conditions: hepatocyte, dose or concentration not given here.
Sequence of EGFR (Wistar rat) (P00533 whole entry, looked up): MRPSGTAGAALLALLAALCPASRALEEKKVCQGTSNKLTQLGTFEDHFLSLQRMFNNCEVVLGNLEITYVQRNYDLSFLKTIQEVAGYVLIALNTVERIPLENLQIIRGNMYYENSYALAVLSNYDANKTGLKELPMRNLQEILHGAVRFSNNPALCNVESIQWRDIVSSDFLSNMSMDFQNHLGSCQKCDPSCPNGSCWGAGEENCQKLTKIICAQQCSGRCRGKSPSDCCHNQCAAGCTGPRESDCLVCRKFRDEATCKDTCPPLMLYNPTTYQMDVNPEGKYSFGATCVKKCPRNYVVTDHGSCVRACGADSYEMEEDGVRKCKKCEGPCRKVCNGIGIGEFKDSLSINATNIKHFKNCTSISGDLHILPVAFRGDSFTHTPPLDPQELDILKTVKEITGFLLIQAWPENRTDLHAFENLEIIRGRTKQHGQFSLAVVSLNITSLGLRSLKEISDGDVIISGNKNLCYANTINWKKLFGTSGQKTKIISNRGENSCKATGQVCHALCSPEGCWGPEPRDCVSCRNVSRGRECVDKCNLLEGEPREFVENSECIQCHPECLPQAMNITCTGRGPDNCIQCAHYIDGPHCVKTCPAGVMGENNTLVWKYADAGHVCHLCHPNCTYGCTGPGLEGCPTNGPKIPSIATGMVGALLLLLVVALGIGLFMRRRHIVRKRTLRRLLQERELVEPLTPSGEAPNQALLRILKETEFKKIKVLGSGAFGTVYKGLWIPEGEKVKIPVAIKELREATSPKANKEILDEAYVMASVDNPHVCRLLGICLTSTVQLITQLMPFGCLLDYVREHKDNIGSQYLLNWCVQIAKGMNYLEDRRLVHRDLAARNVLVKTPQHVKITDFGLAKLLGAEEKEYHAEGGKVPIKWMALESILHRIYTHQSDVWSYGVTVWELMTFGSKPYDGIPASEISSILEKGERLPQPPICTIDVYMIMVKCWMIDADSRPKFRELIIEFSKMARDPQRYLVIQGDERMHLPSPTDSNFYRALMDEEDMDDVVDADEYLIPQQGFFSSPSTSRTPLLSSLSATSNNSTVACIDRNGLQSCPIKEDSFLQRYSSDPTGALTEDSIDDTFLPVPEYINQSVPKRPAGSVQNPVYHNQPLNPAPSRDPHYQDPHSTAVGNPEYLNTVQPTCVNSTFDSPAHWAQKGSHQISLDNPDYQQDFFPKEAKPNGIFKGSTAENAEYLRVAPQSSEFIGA

Take `COc1cccc(-c2cc(=O)c3ccccc3o2)c1N`: the DNA synthesis came out at 16%.
